Where two headings read alike, the source gives them in different places.
Legend:
[1] = target: T1, Human 5-HT7 (Homo sapiens, UniProt P34969); assay: In vitro binding affinity to serotonin 5-HT7 receptors using HEK293 cells
T1 construct: expressed in transfected cells; host or cells: HEK293
Source text: 2015, 6, 1259-1270. The compounds are tertiary amines and available to bind 5-HT7 receptors both in the brain and in the periphery. Each of the compounds can be derivatized to a corresponding positively-charged quaternary amine, for example, by the addition of a third alkyl group, R3, to render it impermeable to the blood-brain barrier and specific for peripheral 5-HT7 receptors.

[2] = Plasma and brain concentrations after subcutaneous administration (LC-MS/MS); format: in vivo, C57Bl/6J mice; details: for concentration at 30 min / concentration at 60 min / concentration at 90 min: male, C57Bl/6J, mouse, 3.0 mg/kg subcutaneous, mice, mean (SEM); for concentration at 30 min: 30 min after injection; for concentration at 60 min: 60 min after injection; for concentration at 90 min: 90 min after injection
Method: At 30, 60, or 90 min later, mice were euthanized by rapid cervical dislocation and decapitation. Trunk blood was collected in pre-chilled, heparin-coated tubes. Brains were quickly excised and frozen in liquid nitrogen. Plasma was collected from blood after centrifugation for 5 min at 13,000 g. Whole brain samples were wrapped in foil, and brain and plasma samples were labeled and stored at −80° C. until liquid chromatography-mass spectrometry/mass spectrometry (LC-MS/MS) assays were performed. Frozen brain samples were weighed and homogenized in phosphate buffered saline (PBS), pH 7.4. After the first analysis, the extra brain homogenate was stored at −80° C. until they were thawed for a second, more dilute, analysis. Plasma samples were used directly upon arrival. The proteins from each plasma sample and a portion of each brain homogenate were immediately precipitated with 1:1 methanol:acetonitrile (4× starting volume) and internal standard ((−)-MBP^68) followed by centrifugation at 14,000 g for 5 minutes at 4° C. The resulting supernatants from each sample were dried under nitrogen. Each sample was reconstituted in methanol, vortexed, sonicated briefly, and centrifuged prior to LC-MS/MS analysis. Calibration curves were constructed from the ratios of the peak areas of 5-FPT versus (−)-MBP in extracted standards made in mouse plasma or homogenized mouse brain.
LC-MS/MS analysis was performed using an Agilent 1100 series HPLC and a Thermo Finnigan Quantum Ultra triple quad mass spectrometer. The mobile phases used were 0.1% formic acid in water (A) and 0.1% formic acid in methanol (B) in a 5 minute gradient. Samples of 10 μL each were injected onto a Phenomenex Gemini C18 column (2×50 mm, 5μ) with a C18 guard column. 5-FPT and its internal standard ((−)-MBP) were ionized in ESI+ and detected in SRM mode. Internal standards were used for quantification of the compound level per g tissue or per μL plasma. Four mice were included per group, but plasma levels from one mouse were not detectable due to low volume of blood collected.

[3] = system: DOI HTR; assay: Attenuation of the DOI HTR; format: in vivo; details: 5.6 mg/kg
[4] = brain, read-out: Brain concentration
[5] = plasma, read-out: Plasma concentration

T1 sequence (P34969 1-445 isoform P34969-2): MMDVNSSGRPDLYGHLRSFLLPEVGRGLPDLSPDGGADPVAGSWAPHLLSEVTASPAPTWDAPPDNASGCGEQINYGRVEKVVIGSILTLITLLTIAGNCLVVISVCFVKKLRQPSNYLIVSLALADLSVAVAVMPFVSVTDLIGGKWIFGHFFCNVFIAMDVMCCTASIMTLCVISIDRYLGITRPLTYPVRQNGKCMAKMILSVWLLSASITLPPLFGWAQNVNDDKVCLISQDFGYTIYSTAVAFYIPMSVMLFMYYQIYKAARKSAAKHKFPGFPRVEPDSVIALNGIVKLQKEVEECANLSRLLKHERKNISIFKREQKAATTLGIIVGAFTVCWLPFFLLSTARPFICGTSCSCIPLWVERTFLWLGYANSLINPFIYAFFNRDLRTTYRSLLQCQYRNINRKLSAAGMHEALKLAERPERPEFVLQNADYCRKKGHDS

With `CN(C)C1CCc2c(cccc2-c2cccc(C(F)(F)F)c2)C1` (racemic) [(R/S)-Methyl / Phenyl-3′-CF3] the Ki [1] was 0.063 ± 0.0066 µM.

Compound `CN(C)[C@H]1CCc2c(cccc2-c2ccccc2)C1` [(S)-Methyl / Phenyl] has a Ki [1] of 0.009 ± 0.0004 µM.

Compound `CN(C)C1CCc2c(cccc2-c2cccc(F)c2)C1` (racemic) [(R/S)-Methyl / Phenyl-3′-F] has a Ki [1] of 0.034 ± 0.0062 µM.

`CCCN(CCC)[C@H]1CCc2c(cccc2-c2ccccc2)C1` [(S)-Propyl / Phenyl] showed a Ki [1] of 0.083 ± 0.0058 µM.

With `CN(C)[C@@H]1CCc2c(cccc2-c2ccccc2F)C1` [(R)-Methyl / Phenyl-2′-F] the Ki [1] was 0.26 ± 0.053 µM.

Compound `CN(C)C1CCc2c(cccc2-c2cc(F)cc(F)c2)C1` (racemic) [(R/S)-Methyl / Phenyl-3′,5′-F] has a Ki [1] of 0.18 ± 0.032 µM.

For `CN(C)[C@H]1CCc2c(cccc2-c2ccc(Cl)cc2)C1` [(S)-Methyl / Pheny-4′-Cl], the Ki [1] was 0.072 ± 0.0058 µM.

With `COc1cc(-c2ccccc2)c2c(c1OC)CC(N(C)C)CC2` (racemic) [(R/S)-Methyl / 7,8-diOMe-5-Phenyl] the Ki [1] was over 10 µM.

`CN(C)[C@H]1CCc2c(cccc2-c2ccccc2Cl)C1` [(S)-Methyl / Phenyl-2′-Cl] gave a Ki [1] of 0.006 ± 0.0006 µM.

`CN(C)C1CCc2c(cccc2-c2cc(Cl)cc(Cl)c2)C1` (racemic) [(R/S)-Methyl / Phenyl-3′,5′-Cl] showed a Ki [1] of 0.04 ± 0.06 µM.

Work on `CN(C)C1CCc2c(cccc2C2CCCC2)C1` (racemic) [(R/S)-Methyl / Cyclopentyl] yielded a Ki [1] of 0.24 ± 0.035 µM.

Work on `CN(C)[C@@H]1CCc2c(cccc2-c2ccccc2)C1` [(R)-Methyl / Phenyl] yielded a Ki [1] of 4.4 ± 0.93 µM.

`CCCN(CCC)[C@H]1CCc2c(cccc2-c2ccccc2F)C1` [(S)-Propyl / 2′-F-Phenyl] gave a Ki [1] of 0.035 ± 0.0052 µM.

With `CN(C)C1CCc2c(cccc2-c2ccc(F)cc2)C1` (racemic) [(R/S)-Methyl / Phenyl-4′-F] the Ki [1] was 0.12 ± 0.017 µM.

`CN(C)C1CCc2c(cccc2-c2cccc(Cl)c2)C1` (racemic) [(R/S)-Methyl / Phenyl-3′-Cl] showed a Ki [1] of 0.018 ± 0.0024 µM.

In the case of `CN(C)[C@@H]1CCc2c(cccc2-c2ccccc2Cl)C1` [(R)-Methyl / Phenyl-2′-Cl], the Ki [1] is reported as 0.058 ± 0.012 µM.

With `CN(C)C1CCc2c(cccc2-c2ccccc2F)C1` (single isomer, unassigned; (+)) [(+)-5-FPT, 5-(2′-fluorophenyl)-N,N-dimethyl-1,2,3,4-tetrahydronaphthalen-2-amine] the Blood-brain barrier crossing ([2]; 30, 60 and 90 min after systemic administration) was “readily crosses the blood-brain barrier”, the “Clearance in the periphery (plasma relative to brain levels)” value ([2]; as soon as 30 min post-administration) was “rapidly cleared in the periphery” and the concentration at 30 min [2, 4] was 1780 ng/g. The concentration at 60 min [2, 4] was 2160 ng/g, the concentration at 90 min [2, 4] was 1460 ng/g and the concentration at 30 min [2, 5] was 114 ng/mL. For the same compound, the concentration at 60 min [2, 5] was 118 ng/mL, the concentration at 90 min [2, 5] was 70 ng/mL and the “Time for which attenuating effect on the DOI HTR remained significant” value [3] was “up to 2 hrs”. The “Block of the DOI HTR” value ([3]; 3 hrs. post-administration) was “did not block the DOI HTR”.

For `COc1cccc(-c2cccc3c2CCC(N(C)C)C3)c1` (racemic) [(R/S)-Methyl / Phenyl-3′-OMe], the Ki [1] was 0.037 ± 0.009 µM.

In the case of `CCCN(CCC)[C@@H]1CCc2c(cccc2-c2ccccc2F)C1` [(R)-Propyl / 2′-F-Phenyl], the Ki [1] is reported as 0.063 ± 0.0027 µM.

Compound `CN(C)C1CCc2c(cccc2-c2ccc(F)cc2Cl)C1` (racemic) [(R/S)-Methyl / Phenyl-2′-Cl-4′-F] has a Ki [1] of 0.03 ± 0.01 µM.

Work on `CCCN(CCC)[C@@H]1CCc2c(cccc2-c2ccccc2)C1` [(R)-Propyl / Phenyl] yielded a Ki [1] of 0.18 ± 0.031 µM.

`CN(C)[C@H]1CCc2c(cccc2-c2cc(C(F)(F)F)cc(C(F)(F)F)c2)C1` [(S)-Methyl / Phenyl-3′,5′-CF3] gave a Ki [1] of 0.91 ± 0.26 µM.

`CN(C)C1CCc2c(cccc2OCc2ccccc2)C1` (racemic) [(R/S)-Methyl / O-Benzyl] gave a Ki [1] of over 10 µM.

`CN(C)[C@H]1CCc2c(cccc2-c2ccccc2F)C1` [(S)-Methyl / Phenyl-2′-F] showed a Ki [1] of 0.006 ± 0.0007 µM.

— patent US10548856B2, “Compounds and methods for modulating serotonin receptors in the periphery” (Northeastern University, priority 2015, dated 2020)
